The text below walks through data of patent US20210018504A1, “SHON AS A PROGNOSTIC BIOMARKER FOR CANCER AND AS A PREDICTOR OF RESPONSE TO ENDOCRINE THERAPY” (priority 2012, published 2021).

One assay has as its system SHON. Briefly: SHON expression in MCF-7 cells after 17β-estradiol treatment (RT-PCR, Western blot). It counts as cell-based, human. On the procedure:
(§1) FIGS. 12A-C. SHON is an estrogen inducible gene. (A) RT-PCR. MCF-7 cells were cultured for 24 h in RPMI media containing 10% foetal bovine serum (FBS). Prior to 17β-estradiol (E2) treatment, cells were further cultured for 72 h in phenol red-free medium containing 10% charcoal stripped-FBS. Cells were then treated with 10 nM of E2. Total RNAs were isolated from the cells at indicated time points and the expression of SHON mRNA was determined by One-Step RT-PCR kits (Qiagen) with the SHON-specific primer pairs of SHONc5 and SHONc3 (Table 1). β-ACTIN was included as the RNA input control using forward primer: 5′-ATCATATCGCCGCGCTCG-3′ (SEQ ID NO: 9) and reverse primer: 5′-CGCTCGGTGAGGATCTTCA-3′ (SEQ ID NO: 10). The bp sizes of amplified products are shown on the right. (B) MCF7-Vec and MCF7-SHON cells were treated with DMSO vehicle (−) or 10 nM of E2 (+) for 72 h in phenol red-free medium containing 10% charcoal stripped-FBS. The expression of SHON in whole cell lysates was determined by Western blot with the rabbit polyclonal SHONα antibody. Molecular weights of detected protein bands are shown on the right. (C) Total cell number assays. MCF7-Vec and MCF7-SHON stable cells were seeded in phenol-red free RPMI media with 10% charcoal stripped FBS. […] The cell number was determined at the days indicated. […] The cell number was determined at the indicated days. **, P<0.01; ***, P<0.001. […]
In general terms: Immunoblotting shows a protein as a band on a membrane.

The test system of the next assay is MCF7-SHON cells. The assay can be described thus: Total cell number assays in MCF7-Vec and MCF7-SHON stable cells. It counts as cell-based, human. On the procedure: as §1
A further assay has as its system breast cancer. The following applies: adjuvant therapy for 5 years, cited from earlier work.

In the case of `C[C@]12CC[C@@H]3c4ccc(O)cc4CC[C@H]3[C@@H]1CC[C@@H]2O` [E2, 17β-estradiol], the “SHON mRNA levels” value in the assay on SHON (10 nM E2, MCF-7 cells, RT-PCR) is “increase in SHON mRNA levels in a time dependent manner”. Further, the SHON protein expression entry in the assay on SHON (10 nM E2 for 72 h, MCF7-Vec and MCF7-SHON cells, Western blot) is recorded as “increased”. Besides, in the assay on MCF7-SHON cells (10 nM E2, MCF7-SHON compared with MCF-Vec cells), the cell number result was “synergistic increase in cell number”.

For `C[C@]12CC[C@@H]3c4ccc(O)cc4C[C@@H](CCCCCCCCC[S+]([O-])CCCC(F)(F)C(F)(F)F)[C@H]3[C@@H]1CC[C@@H]2O` (stereo partly drawn) [ICI 182780], the SHON-stimulated growth entry with MCF7-SHON cells (100 nM ICI, ER+ MCF-7 cells) is listed as “partially attenuated SHON-stimulated growth advantages”.

Turning to `CC/C(=C(\c1ccccc1)c1ccc(OCCN(C)C)cc1)c1ccccc1` [tamoxifen], in the assay with breast cancer (at 15 years), the “absolute reduction in mortality” value is listed as 9.2%. Further, the “reduction in the annual breast cancer death rate” value in the assay on breast cancer is listed as 34%.
